What is called EC50 is the concentration needed to bring the measured effect to its halfway point.

The test system of one experiment is Colo205. The experiment in a line: Proliferation assay (CellTiter Glo). In kind it is cell-based. The following applies: Colo205 (RAS WT); 96 hours. On the procedure: (§1) The dose range for most compounds was 4.6 nM-30 μM. The dose ranges for some compounds were adjusted downward to 0.46 nM-3 μM or 0.08 nM-0.5 μM or 0.03 nM-0.2 μM. […] The results are shown in Tables 3-6 for pancreatic cancer, lung cancer, colon/gastric cancer, and leukemia.
(§2) Other cancer cell lines having wild-type K-RAS status and K-RAS mutation at G12 were also screened using the PKC activator compounds. […] K104 was tested in a range of 0.03 nM-0.2 μM. […] The dose ranges were adjusted downward to 0.46 nM-3 μM for K102 and 0.08 nM-0.5 μM for K103 for some cell lines. The results of the screening of cancer cells lines with wild-type K-RAS status and K-RAS mutations at the G12 positions are presented in Table 7.
In general terms: In ATP-based viability assays light output follows the ATP content of the culture.

The test system of the next experiment is RPMI8226. Put plainly: Proliferation assay (CellTiter Glo). In kind it is cell-based. The following applies: RPM18226; 96 hours. Here is the method: as §1, §2
The test system of the next experiment is SW900. The experiment in a line: Proliferation assay (CellTiter Glo). In kind it is cell-based. The following applies: SW900 (K-RAS: G12V); 96 hours. On the procedure:
as §1, §2

The test system of another experiment is H838. Put plainly: Proliferation assay (CellTiter Glo). It is filed as cell-based. The settings on record: H838 (RAS WT); 96 hours. On the procedure:
as §1, §2

The subject of another experiment is HT29. The experiment in a line: Proliferation assay (CellTiter Glo). It is filed as cell-based. The following applies: HT29 (RAS WT); 96 hours. On the procedure:
as §1, §2

The test system of a further experiment is BxPC-3. The experiment in a line: Proliferation assay (CellTiter Glo). In kind it is cell-based. The settings on record: BxPC-3 (RAS WT); 96 hours. Here is the method: as §1, §2
Another experiment has as its system H1915. The experiment in a line: Proliferation assay (CellTiter Glo). The following applies: H1915 (RAS WT); 96 hours. In kind it is cell-based. On the procedure: as §1, §2
The subject of another experiment is HL60. The experiment in a line: Proliferation assay (CellTiter Glo). The settings on record: 96 hours. In kind it is cell-based, human. Here is the method: as §1
A further experiment concerns THP1. The experiment in a line: Proliferation assay (CellTiter Glo). In kind it is cell-based, human. The following applies: 96 hours. Here is the method: as §1
In another experiment the test system is H727. Put plainly: Proliferation assay (CellTiter Glo). The following applies: 96 hours. In kind it is cell-based. On the procedure:
as §1

For the next experiment, the system named is H358. The experiment in a line: Proliferation assay (CellTiter Glo). In kind it is cell-based. The following applies: HE58, 96 hours. Here is the method:
as §1

The next experiment relates to LS180. Put plainly: Proliferation assay (CellTiter Glo). In kind it is cell-based. The following applies: 96 hours. On the procedure:
as §1

A further experiment deals with AGS. The experiment in a line: Proliferation assay (CellTiter Glo). It is filed as cell-based. The settings on record: 96 hours. On the procedure:
as §1

The next experiment has as its system Capan-1. The experiment in a line: Proliferation assay (CellTiter Glo). In kind it is cell-based. The settings on record: 96 hours. On the procedure:
as §1

Another experiment relates to HCT116. Put plainly: Proliferation assay (CellTiter Glo). In kind it is cell-based. The following applies: 96 hours. Here is the method:
as §1

For another experiment, the system named is A549. Put plainly: Proliferation assay (CellTiter Glo). In kind it is cell-based. The following applies: 96 hours. Here is the method: as §1
Another experiment deals with H441. The experiment in a line: Proliferation assay (CellTiter Glo). It is filed as cell-based. The following applies: 96 hours. On the procedure: as §1
For another experiment, the system named is SW620. Put plainly: Proliferation assay (CellTiter Glo). In kind it is cell-based. The settings on record: 96 hours. On the procedure:
as §1

A further experiment concerns KP-4. Put plainly: Proliferation assay (CellTiter Glo). In kind it is cell-based. The following applies: 96 hours. Here is the method: as §1
The subject of a further experiment is MiaPaCa-2. The experiment in a line: Proliferation assay (CellTiter Glo). It is filed as cell-based. The following applies: 96 hours.
The next experiment concerns CCRF-CEM. Put plainly: Proliferation assay (CellTiter Glo). It is filed as cell-based. The settings on record: 96 hours. Here is the method: as §1
The next experiment relates to AsPC-1. Put plainly: Proliferation assay (CellTiter Glo). It is filed as cell-based. The following applies: 96 hours. On the procedure: as §1
Another experiment concerns Pan2.13. The experiment in a line: Proliferation assay (CellTiter Glo). In kind it is cell-based. The settings on record: 96 hours. On the procedure:
as §1

Another experiment deals with Pan2.03. The experiment in a line: Proliferation assay (CellTiter Glo). In kind it is cell-based. The following applies: 96 hours. On the procedure:
as §1

For experiment [1], the system named is HL-60 human promyelocytic leukemia cells. The experiment in a line: Combination viability/proliferation assays.
Method: Briefly, cells at density of 1,000-10,000 cells/well in 96-well plates or 200-1600 cells/well in 384-well plates were seeded and incubated at 37° C. for 24 hours before addition of compounds. A series of 9 different concentrations of compound stocks (500×) were prepared by 3-fold serial dilutions in DMSO. […] After 96 hours of incubation, 35 μL or 50 μL of CellTiter Glo reagent (Promega) was added to each well and luminescence was measured after 10 minutes using EnVision (PerkinElmer). Luminescence from cells treated with DMSO alone was set as Max and % of inhibition was calculated as follows: Inhibition %=(Max-Sample value)/Max*100. Data were analyzed using XLfit software (ID Business Solutions Ltd.) or GraphPad software and IC50, relative IC50, and % of top inhibition were calculated.
The top concentration for the tested PKC activator compound was set at roughly the IC50 when the same testing compound was used as a single agent assayed in the same cell line. The next dose was either 3-fold or 10-fold dilution from the top concentration.
In experiment [2] the test system is A549 lung cancer cell line. The experiment in a line: Combination viability/proliferation assays (384-well IC50 ratio, 96-well MacSynergy II). In kind it is cell-based. Here is the method:
A 96-well MacSynergy II format for combination test was also used. […] The analysis was done with the SQRT(Data) scale and the four parameter Hill curve was fitted using XLfit5.1 (the MacSynergy II Excel Spreadsheet) for the inhibition data. Synergy (positive number) or Antagonism (negative number) volumes were calculated. […] Three-dimensional MacSynergy II graphs were generated where positive values indicated synergism and negative values indicated antagonism.

Where two headings read alike, the source gives them in different places. Where only a bound is given, the exact number is not on record here.

Regarding `CC(=O)OC12CC(C)C3(O)C(C=C(CO)CC4(O)C(O)C(C)=CC43)C1C2(C)C` (stereo not shown) [Compound K101C], the “Top Inhibition %” value in the experiment on Colo205 came to 73.2%; with RPMI8226, 22.72%; with SW900, 10.9%; in the experiment with H838 it was 20.2%; in the experiment on HT29, 4.8%; in the experiment with BxPC-3, 36.67%. Besides, the “Top Inhibition %” value in the experiment with H1915 was found to be 28.9%; with HL60 (HL60, % of top inhibition), 63.9%; with THP1 (THP1, % of top inhibition), 51.4%; with H727 (H727, % of top inhibition) it was 42.8%; in the experiment on H358 (% of top inhibition), 44.0%; with LS180 (LS180, % of top inhibition), 6.8%. For the same compound, the “Top Inhibition %” value with AGS (AGS, % of top inhibition) is listed as 25.3%; with Capan-1 (Capan-1, % of top inhibition), 35.7%; in the experiment with HCT116 (HCT116, % of top inhibition) it was 12.2%; in the experiment on A549 (A549, % of top inhibition) it was 70.3%; with H441 (H441, % of top inhibition), 37.0%; in the experiment with SW620 (SW620, % of top inhibition), 0.0%. In addition, the “Top Inhibition %” value is 70.4% in the experiment on KP-4 (KP-4, % of top inhibition) and 40.1% in the experiment on MiaPaCa-2 (MiaPaCa-2, % of top inhibition). Besides, the EC50 with HL60 (HL60 (N-RAS: Q61L), absolute EC50, read-out: Ab EC50) was 17 µM; in the experiment on HL60 (HL60, relative EC50, read-out: Re EC50), 13 µM; in the experiment with THP1 (THP1 (N-RAS: G12D), absolute EC50, read-out: Ab EC50), 16 µM; in the experiment on THP1 (THP1, relative EC50, read-out: Re EC50), 8.11 µM; in the experiment on H727 (H727 (K-RAS: G12V), absolute EC50, read-out: Ab EC50), greater than 30 µM; in the experiment on H727 (H727, relative EC50, read-out: Re EC50), 3.61 µM. The EC50 is greater than 30 µM in the experiment on H358 (absolute EC50, read-out: Ab EC50); 4.98 µM with H358 (relative EC50, read-out: Re EC50); greater than 30 µM in the experiment on LS180 (LS180 (K-RAS: G12D), absolute EC50, read-out: Ab EC50); greater than 30 µM in the experiment with AGS (AGS (gastric, K-RAS: G12D), absolute EC50, read-out: Ab EC50); 11 µM in the experiment on AGS (AGS, relative EC50, read-out: Re EC50); greater than 30 µM with Capan-1 (Capan-1 (K-RAS: G12V), absolute EC50, read-out: Ab EC50). For the same compound, the EC50 is 5.4 µM in the experiment on Capan-1 (Capan-1, relative EC50, read-out: Re EC50); greater than 30 µM in the experiment with HCT116 (HCT116 (K-RAS: G13D), absolute EC50, read-out: Ab EC50); 13 µM with A549 (A549 (K-RAS: G12S), absolute EC50, read-out: Ab EC50); 6.68 µM in the experiment on A549 (A549, relative EC50, read-out: Re EC50); greater than 30 µM with H441 (H441 (K-RAS: G12V), absolute EC50, read-out: Ab EC50); 7.44 µM in the experiment with H441 (H441, relative EC50, read-out: Re EC50). Moreover, the EC50 with SW620 (SW620 (K-RAS: G12V), absolute EC50, read-out: Ab EC50) is greater than 30 µM; in the experiment with KP-4 (KP-4 (K-RAS: G12C), absolute EC50, read-out: Ab EC50), 11 µM; in the experiment on KP-4 (KP-4, relative EC50, read-out: Re EC50), 6.77 µM; in the experiment on MiaPaCa-2 (MiaPaCa-2 (K-RAS: G12C), absolute EC50, read-out: Ab EC50) it was greater than 30 µM; in the experiment on MiaPaCa-2 (MiaPaCa-2, relative EC50, read-out: Re EC50) it was 4.37 µM.

For the compound `CC(=O)OC12CC(C)C3(O)C(C=C(COC(=O)CC(N)C(=O)[O-])CC4(O)C(=O)C(C)=CC43)C1C2(C)C.[Na+]` (stereo not shown) [Compound K101I], the “Top Inhibition %” value with Colo205 amounted to 82.2%; with RPMI8226 it was 17.60%; in the experiment with SW900 it was 10.8%; in the experiment with H838, 29.3%; in the experiment with HT29, 11.8%; with BxPC-3 it was 38.12%. For the same compound, the “Top Inhibition %” value in the experiment with H1915 came to 16.4%; in the experiment with CCRF-CEM (CCRF-CEM, % of top inhibition) it was 37.4%; in the experiment on AsPC-1 (AsPC-1, % of top inhibition) it was 25.0%; with Pan2.13 (Pan2.13, % of top inhibition), 48.3%; in the experiment on Pan2.03 (Pan2.03, % of top inhibition) it was 26.3%. For the same compound, the EC50 in the experiment on CCRF-CEM (CCRF-CEM (K-RAS: G12D), absolute EC50, read-out: Ab EC50) was greater than 30 µM; with CCRF-CEM (CCRF-CEM, relative EC50, read-out: Re EC50) it was 1.51 µM; in the experiment on AsPC-1 (AsPC-1 (K-RAS: G12D), absolute EC50, read-out: Ab EC50), greater than 30 µM; with AsPC-1 (AsPC-1, relative EC50, read-out: Re EC50) it was 6.64 µM; with Pan2.13 (Pan2.13 (K-RAS: Q61H), absolute EC50, read-out: Ab EC50) it was greater than 30 µM; with Pan2.13 (Pan2.13, relative EC50, read-out: Re EC50), 0.16 µM. Further, the EC50 is greater than 30 µM in the experiment with Pan2.03 (Pan2.03 (K-RAS: G12D), absolute EC50, read-out: Ab EC50) and 6.04 µM in the experiment on Pan2.03 (Pan2.03, relative EC50, read-out: Re EC50).

On to `Cc1sc2c(c1C)C(c1ccc(Cl)cc1)=NC(CC(=O)OC(C)(C)C)c1nnc(C)n1-2` (racemic) [(±)-JQ1, tert-butyl 2-(4-(4-chlorophenyl)-2,3,9-triMethyl-6H-thieno[3,2-f][1,2,4]triazolo[4,3-a][1,4]diazepin-6-yl)acetate], for which the “effect in combination with K101A and K102” value in experiment [1] was “moderate or minor synergistic/additive effect”. Also, the “Ratio ([…] DMSO IC50/combination IC50)” value in [2] (A549, in combination with 0.013 μM K102) amounted to 0.55; in experiment [2] (A549, in combination with 0.04 μM K102) it was 0.57; in experiment [2] (A549, in combination with 0.33 uM K101A), 0.27; in experiment [2] (A549, in combination with 1 uM K101A), 0.09. In addition, in experiment [2] (K101A or K102), the “effect in combination with K101A or K102 in inhibiting the growth of A549 cells” value is given as “strong antagonist effect”. Also, in experiment [2] (agent assayed in combination with K101A, A549, * 2-3 concentrations, # full concentration ranges), the “Combination in A549: K101A (synergism/antagonism)” value is listed as “Antagonism”. The “Combination in A549: K102 (synergism/antagonism)” value in [2] (agent assayed in combination with K102, A549, * 2-3 concentrations, # full concentration ranges) is “Antagonism”.

The values above are taken from patent publication US10722484B2, “Methods of cancer treatment” (K-Gen, Inc., priority 2016, dated 2020).
